Assay results published in patent US8273774B2, “Phenoxypyridinylamide compounds” (AstraZeneca AB, priority 2008, dated 2012).

Biological target: recombinant Human Phosphodiesterase B2 (PDE4B2) (Homo sapiens, UniProt Q07343)
Assay: Human Phosphodiesterase B2 Radiometric Assay
Format: biochemical
Settings: 0.1 μg/mL recombinant PDE4B2; preincubated at 30 C for 30 min; [3H]cyclic AMP 8 nM, stopped after 20 min; yttrium silicate SPA beads; read-out: PDE4B2 pIC50 (converted)
Outline: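 SPA read-out: product 5′AMP binds yttrium silicate beads (added with 18 mM ZnSO4 after 20 min) in preference to [3H]cAMP substrate, given at 8 nM final.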

recombinant Human Phosphodiesterase B2 (PDE4B2), sequence (Q07343 1-564 isoform Q07343-2): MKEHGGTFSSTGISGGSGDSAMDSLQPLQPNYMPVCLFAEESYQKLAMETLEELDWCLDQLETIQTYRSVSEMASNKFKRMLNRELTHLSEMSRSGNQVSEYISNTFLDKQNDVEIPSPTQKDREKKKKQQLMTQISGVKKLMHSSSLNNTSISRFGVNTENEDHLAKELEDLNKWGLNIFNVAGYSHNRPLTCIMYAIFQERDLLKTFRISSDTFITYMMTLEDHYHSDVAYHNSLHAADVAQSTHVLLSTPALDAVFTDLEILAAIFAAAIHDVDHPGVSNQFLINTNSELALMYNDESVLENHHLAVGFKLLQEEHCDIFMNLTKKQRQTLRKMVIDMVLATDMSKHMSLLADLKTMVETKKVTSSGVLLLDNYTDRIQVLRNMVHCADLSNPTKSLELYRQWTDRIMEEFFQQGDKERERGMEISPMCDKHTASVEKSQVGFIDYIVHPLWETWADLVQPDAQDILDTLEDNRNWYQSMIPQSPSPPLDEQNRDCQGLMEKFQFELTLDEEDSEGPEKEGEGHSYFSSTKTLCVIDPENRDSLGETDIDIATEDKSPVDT

| SMILES | IC50 [nM] |
| --- | --- |
| Cn1nc(C(=O)N[C@H]2CC[C@@H](NC(=O)c3cc(F)cnc3Oc3cccc(-c4ccc(CCCN5CCNCC5)cc4)c3)CC2)cc1C(F)(F)F [Example 160, 5-Fluoro-N-((1s,4s)-4-(1-methyl-5-(trifluoromethyl)-1H-pyrazole-3-carboxamido)cyclohexyl)-2-(4′-(3-(piperazin-1-yl)propyl)biphenyl-3-yloxy)nicotinamide] | 0.01 |
| O=C(N[C@H]1CC[C@@H](NC(=O)c2cccc3cccnc23)CC1)c1cc(F)cnc1Oc1cccc(-c2ccc(CCCNCCCO)cc2)c1 [Example 161, N-((1s,4s)-4-(5-Fluoro-2-(4′-(3-(3-hydroxypropylamino)propyl)biphenyl-3-yloxy)nicotinamido)cyclohexyl)quinoline-8-carboxamide] | 0.0126 |
| C[C@@H]1CN(CCc2ccc(-c3cccc(Oc4ncc(F)cc4C(=O)N[C@H]4CC[C@@H](NC(=O)c5cc6n(n5)CCCC6)CC4)c3)cc2)C[C@H](C)N1 [Example 162, N-((1s,4s)-4-(2-(4′-(2-((3S,5R)-3,5-Dimethylpiperazin-1-yl)ethyl)biphenyl-3-yloxy)-5-fluoronicotinamido)cyclohexyl)-4,5,6,7-tetrahydropyrazolo[1,5-a]pyridine-2-carboxamide] | 0.0398 |
| C[C@@H]1CN(CCc2ccc(-c3cccc(Oc4ncc(F)cc4C(=O)N[C@H]4CC[C@@H](NC(=O)c5ccn(C)n5)CC4)c3)cc2)C[C@H](C)N1 [Example 163, 2-(4′-(2-((3S,5R)-3,5-Dimethylpiperazin-1-yl)ethyl)biphenyl-3-yloxy)-5-fluoro-N-((1s,4s)-4-(1-methyl-1H-pyrazole-3-carboxamido)cyclohexyl)nicotinamide] | 0.0398 |
| C[C@@H]1CN(CCCc2ccc(-c3cccc(Oc4ncc(F)cc4C(=O)N[C@H]4CC[C@@H](NC(=O)c5ccn(C)n5)CC4)c3)cc2)C[C@H](C)N1 [Example 165, 2-(4′-(3-((3S,5R)-3,5-Dimethylpiperazin-1-yl)propyl)biphenyl-3-yloxy)-5-fluoro-N-((1s,4s)-4-(1-methyl-1H-pyrazole-3-carboxamido)cyclohexyl)nicotinamide] | 0.0631 |
| Cc1cc(C(=O)N[C@H]2CC[C@@H](NC(=O)c3cc(F)cnc3Oc3cccc(-c4ccc(CCN5CCCN(C)CC5)cc4)c3)CC2)nn1C [Example 166, N-((1s,4s)-4-(1,5-Dimethyl-1H-pyrazole-3-carboxamido)cyclohexyl)-5-fluoro-2-(4′-(2-(4-methyl-1,4-diazepan-1-yl)ethyl)biphenyl-3-yloxy)nicotinamide] | 0.0398 |
| Cc1cc(C(=O)N[C@H]2CC[C@@H](NC(=O)c3cc(F)cnc3Oc3cccc(-c4ccc(CCN5CCN(C)CC5)cc4)c3)CC2)nn1C [Example 167, N-((1s,4s)-4-(1,5-Dimethyl-1H-pyrazole-3-carboxamido)cyclohexyl)-5-fluoro-2-(4′-(2-(4-methylpiperazin-1-yl)ethyl)biphenyl-3-yloxy)nicotinamide] | 0.0501 |
| C[C@@H]1CN(CCCc2ccc(-c3cccc(Oc4ncc(F)cc4C(=O)N[C@H]4CC[C@@H](NC(=O)c5cc6n(n5)CCCO6)CC4)c3)cc2)C[C@H](C)N1 [Example 168, N-((1s,4s)-4-(2-(4′-(3-((3S,5R)-3,5-Dimethylpiperazin-1-yl)propyl)biphenyl-3-yloxy)-5-fluoronicotinamido)cyclohexyl)-6,7-dihydro-5H-pyrazolo[5,1-b][1,3]oxazine-2-carboxamide] | 0.0501 |
| C[C@@H]1CN(Cc2ccc(-c3cccc(Oc4ncc(F)cc4C(=O)N[C@H]4CC[C@@H](NC(=O)c5cn6cc(F)ccc6n5)CC4)c3)c(CN3CCSCC3)c2)C[C@H](C)N1 [Example 169, N-((1s,4s)-4-(2-(4′-(((3S,5R)-3,5-Dimethylpiperazin-1-yl)methyl)-2′-(thiomorpholinomethyl)biphenyl-3-yloxy)-5-fluoronicotinamido)cyclohexyl)-6-fluoroimidazo[1,2-a]pyridine-2-carboxamide] | 0.02 |
| O=C(N[C@H]1CC[C@@H](NC(=O)c2cc(F)cnc2Oc2cccc(-c3ccc(CN4CCSCC4)cc3CN3CCOCC3)c2)CC1)c1csc(CO)n1 [Example 170, N-((1s,4s)-4-(5-Fluoro-2-(2′-(morpholinomethyl)-4′-(thiomorpholinomethyl)biphenyl-3-yloxy)nicotinamido)cyclohexyl)-2-(hydroxymethyl)thiazole-4-carboxamide] | 0.0501 |
| CN1CCCN(CCc2ccc(-c3cccc(Oc4ncc(F)cc4C(=O)N[C@H]4CC[C@@H](NC(=O)c5cc6n(n5)CCCC6)CC4)c3)cc2)CC1 [Example 171, N-((1s,4s)-4-(5-Fluoro-2-(4′-(2-(4-methyl-1,4-diazepan-1-yl)ethyl)biphenyl-3-yloxy)nicotinamido)cyclohexyl)-4,5,6,7-tetrahydropyrazolo[1,5-a]pyridine-2-carboxamide] | 0.0794 |
| C[C@@H]1CN(CCCc2cccc(-c3cccc(Oc4ncc(F)cc4C(=O)N[C@H]4CC[C@@H](NC(=O)c5cc6n(n5)CCC6)CC4)c3)c2)C[C@H](C)N1 [Example 172, N-((1s,4s)-4-(2-(3′-(3-((3S,5R)-3,5-Dimethylpiperazin-1-yl)propyl)biphenyl-3-yloxy)-5-fluoronicotinamido)cyclohexyl)-5,6-dihydro-4H-pyrrolo[1,2-b]pyrazole-2-carboxamide] | 0.0631 |
| O=C(N[C@H]1CC[C@@H](NC(=O)c2cc(F)cnc2Oc2cccc(-c3ccc(CCCN4CCNCC4)cc3)c2)CC1)c1cc(C2CC2)n[nH]1 [Example 173, N-((1s,4s)-4-(3-Cyclopropyl-1H-pyrazole-5-carboxamido)cyclohexyl)-5-fluoro-2-(4′-(3-(piperazin-1-yl)propyl)biphenyl-3-yloxy)nicotinamide] | 0.0398 |
| C[C@@H]1CN(CCCc2cccc(-c3cccc(Oc4ncc(F)cc4C(=O)N[C@H]4CC[C@@H](NC(=O)c5cc6n(n5)CCCC6)CC4)c3)c2)C[C@H](C)N1 [Example 174, N-((1s,4s)-4-(2-(3′-(3-((3S,5R)-3,5-Dimethylpiperazin-1-yl)propyl)biphenyl-3-yloxy)-5-fluoronicotinamido)cyclohexyl)-4,5,6,7-tetrahydropyrazolo[1,5-a]pyridine-2-carboxamide] | 0.1 |
| Cc1cccc2nc(C(=O)N[C@H]3CC[C@@H](NC(=O)c4cc(F)cnc4Oc4cccc(-c5ccc(CN6C[C@@H](C)N[C@@H](C)C6)cc5CN5CCOC[C@@H]5C)c4)CC3)cn12 [Example 175, N-((1s,4s)-4-(2-(4′-(((3S,5R)-3,5-Dimethylpiperazin-1-yl)methyl)-2′-(((S)-3-methylmorpholino)methyl)biphenyl-3-yloxy)-5-fluoronicotinamido)cyclohexyl)-5-methylimidazo[1,2-a]pyridine-2-carboxamide] | 0.02 |
| Cn1nc(C(=O)N[C@H]2CC[C@@H](NC(=O)c3cc(F)cnc3Oc3cccc(-c4ccc(CCN5CCNCC5)cc4)c3)CC2)cc1C(F)(F)F [Example 176, 5-Fluoro-N-((1s,4s)-4-(1-methyl-5-(trifluoromethyl)-1H-pyrazole-3-carboxamido)cyclohexyl)-2-(4′-(2-(piperazin-1-yl)ethyl)biphenyl-3-yloxy)nicotinamide] | 0.0501 |
| Cc1nc(C(=O)N[C@H]2CC[C@@H](NC(=O)c3cc(F)cnc3Oc3cccc(-c4ccc(CCN5CCNCC5)cc4)c3)CC2)cs1 [Example 177, N-((1s,4s)-4-(5-Fluoro-2-(4′-(2-(piperazin-1-yl)ethyl)biphenyl-3-yloxy)nicotinamido)cyclohexyl)-2-methylthiazole-4-carboxamide] | 0.0501 |
